{"source": "ChEMBL document CHEMBL1201862", "about": "“PubChem BioAssay data set” (2004)", "test_in_all_cases": "inhibition of tumour cell growth, NCI panel, 48 h", "key": {"[1]": {"system": "786-0"}, "[2]": {"system": "A549"}, "[3]": {"system": "ACHN"}, "[4]": {"system": "CAKI-1"}, "[5]": {"system": "CCRF-CEM"}, "[6]": {"system": "COLO 205"}, "[7]": {"system": "DLD-1"}, "[8]": {"system": "DMS-114"}, "[9]": {"system": "DMS-273"}, "[10]": {"system": "EKVX"}, "[11]": {"system": "HCC 2998"}, "[12]": {"system": "HCT-116"}, "[13]": {"system": "HCT-15"}, "[14]": {"system": "HL-60"}, "[15]": {"system": "HOP-18"}, "[16]": {"system": "HOP-62"}, "[17]": {"system": "HT-29"}, "[18]": {"system": "K562"}, "[19]": {"system": "KM12"}, "[20]": {"system": "LOX IMVI"}, "[21]": {"system": "M14"}, "[22]": {"system": "M19-MEL"}, "[23]": {"system": "MOLT-4"}, "[24]": {"system": "Malme-3M"}, "[25]": {"system": "NCI-H226"}, "[26]": {"system": "NCI-H23"}, "[27]": {"system": "NCI-H460"}, "[28]": {"system": "NCI-H522"}, "[29]": {"system": "OVCAR-3"}, "[30]": {"system": "OVCAR-4"}, "[31]": {"system": "OVCAR-5"}, "[32]": {"system": "OVCAR-8"}, "[33]": {"system": "RPMI-8226"}, "[34]": {"system": "SF-268"}, "[35]": {"system": "SF-295"}, "[36]": {"system": "SF-539"}, "[37]": {"system": "SK-MEL-28"}, "[38]": {"system": "SK-MEL-2"}, "[39]": {"system": "SK-MEL-5"}, "[40]": {"system": "SN12C"}, "[41]": {"system": "SNB-19"}, "[42]": {"system": "SNB-75"}, "[43]": {"system": "SNB-78"}, "[44]": {"system": "SR"}, "[45]": {"system": "SW-620"}, "[46]": {"system": "TK-10"}, "[47]": {"system": "UACC-257"}, "[48]": {"system": "UO-31"}, "[49]": {"system": "XF498"}, "[50]": {"system": "HOP-92"}, "[51]": {"system": "IGROV-1"}, "[52]": {"system": "KM-20L2"}, "[53]": {"system": "LXFL 529"}, "[54]": {"system": "RXF 393"}, "[55]": {"system": "SK-OV-3"}, "[56]": {"system": "UACC-62"}}, "note": "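In this assay, cells in 96-well plates receive the compound at five concentrations for 48 hours. Endpoints are linearly interpolated between the surrounding concentrations. Here, GI50 denotes the concentration required for 50% inhibition of growth.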 Calls of active or inactive are those of the source. Cut-off read from the data, not from the text of the source: active = GI50 up to about 1.1 µM and inactive = higher."}
{"compound": "COc1cc(/C=C2\\C(=O)N(C(=O)Cc3ccccc3)N=C2C)cc(OC)c1OC", "values": [{"measurement": "GI50", "setting": "[1]", "value": "> 100 µM (inactive)"}, {"measurement": "GI50", "setting": "[2]", "value": "> 100 µM (inactive)"}, {"measurement": "GI50", "setting": "[3]", "value": "> 100 µM (inactive)"}, {"measurement": "GI50", "setting": "[4]", "value": "> 100 µM (inactive)"}, {"measurement": "GI50", "setting": "[5]", "value": "> 100 µM (inactive)"}, {"measurement": "GI50", "setting": "[6]", "value": "> 100 µM (inactive)"}, {"measurement": "GI50", "setting": "[7]", "value": "> 100 µM (inactive)"}, {"measurement": "GI50", "setting": "[8]", "value": "> 100 µM (inactive)"}, {"measurement": "GI50", "setting": "[9]", "value": "> 100 µM (inactive)"}, {"measurement": "GI50", "setting": "[10]", "value": "> 100 µM (inactive)"}, {"measurement": "GI50", "setting": "[11]", "value": "> 100 µM (inactive)"}, {"measurement": "GI50", "setting": "[12]", "value": "> 100 µM (inactive)"}, {"measurement": "GI50", "setting": "[13]", "value": "> 100", "unit": "µM"}, {"measurement": "GI50", "setting": "[14]", "value": "> 100 µM (inactive)"}, {"measurement": "GI50", "setting": "[15]", "value": "> 100 µM (inactive)"}, {"measurement": "GI50", "setting": "[16]", "value": "> 100 µM (inactive)"}, {"measurement": "GI50", "setting": "[17]", "value": "> 100 µM (inactive)"}, {"measurement": "GI50", "setting": "[18]", "value": "> 100 µM (inactive)"}, {"measurement": "GI50", "setting": "[19]", "value": "> 100 µM (inactive)"}, {"measurement": "GI50", "setting": "[20]", "value": "> 100 µM (inactive)"}, {"measurement": "GI50", "setting": "[21]", "value": "> 100 µM (inactive)"}, {"measurement": "GI50", "setting": "[22]", "value": "> 100 µM (inactive)"}, {"measurement": "GI50", "setting": "[23]", "value": "> 100 µM (inactive)"}, {"measurement": "GI50", "setting": "[24]", "value": "> 100 µM (inactive)"}, {"measurement": "GI50", "setting": "[25]", "value": "> 100 µM (inactive)"}, {"measurement": "GI50", "setting": "[26]", "value": "> 100 µM (inactive)"}, {"measurement": "GI50", "setting": "[27]", "value": "> 100 µM (inactive)"}, {"measurement": "GI50", "setting": "[28]", "value": "> 100 µM (inactive)"}, {"measurement": "GI50", "setting": "[29]", "value": "> 100 µM (inactive)"}, {"measurement": "GI50", "setting": "[30]", "value": "> 100 µM (inactive)"}, {"measurement": "GI50", "setting": "[31]", "value": "> 100 µM (inactive)"}, {"measurement": "GI50", "setting": "[32]", "value": "> 100 µM (inactive)"}, {"measurement": "GI50", "setting": "[33]", "value": "> 100 µM (inactive)"}, {"measurement": "GI50", "setting": "[34]", "value": "> 100 µM (inactive)"}, {"measurement": "GI50", "setting": "[35]", "value": "> 100 µM (inactive)"}, {"measurement": "GI50", "setting": "[36]", "value": "> 100 µM (inactive)"}, {"measurement": "GI50", "setting": "[37]", "value": "> 100 µM (inactive)"}, {"measurement": "GI50", "setting": "[38]", "value": "> 100 µM (inactive)"}, {"measurement": "GI50", "setting": "[39]", "value": "> 100 µM (inactive)"}, {"measurement": "GI50", "setting": "[40]", "value": "> 100 µM (inactive)"}, {"measurement": "GI50", "setting": "[41]", "value": "> 100 µM (inactive)"}, {"measurement": "GI50", "setting": "[42]", "value": "> 100 µM (inactive)"}, {"measurement": "GI50", "setting": "[43]", "value": "> 100 µM (inactive)"}, {"measurement": "GI50", "setting": "[44]", "value": "> 100 µM (inactive)"}, {"measurement": "GI50", "setting": "[45]", "value": "> 100 µM (inactive)"}, {"measurement": "GI50", "setting": "[46]", "value": "> 100 µM (inactive)"}, {"measurement": "GI50", "setting": "[47]", "value": "> 100 µM (inactive)"}, {"measurement": "GI50", "setting": "[48]", "value": "> 100 µM (inactive)"}, {"measurement": "GI50", "setting": "[49]", "value": "> 100 µM (inactive)"}]}
{"compound": "CC1(C2COC(=O)C2)SCCCS1", "note": "(stereo unspecified)", "values": [{"measurement": "GI50", "setting": "[1]", "value": "> 100 µM (inactive)"}, {"measurement": "GI50", "setting": "[2]", "value": "> 100 µM (inactive)"}, {"measurement": "GI50", "setting": "[3]", "value": "> 100 µM (inactive)"}, {"measurement": "GI50", "setting": "[4]", "value": "> 100 µM (inactive)"}, {"measurement": "GI50", "setting": "[5]", "value": "> 100 µM (inactive)"}, {"measurement": "GI50", "setting": "[6]", "value": "> 100 µM (inactive)"}, {"measurement": "GI50", "setting": "[7]", "value": "> 100 µM (inactive)"}, {"measurement": "GI50", "setting": "[8]", "value": "> 100 µM (inactive)"}, {"measurement": "GI50", "setting": "[9]", "value": "> 100 µM (inactive)"}, {"measurement": "GI50", "setting": "[10]", "value": "> 100 µM (inactive)"}, {"measurement": "GI50", "setting": "[11]", "value": "> 100 µM (inactive)"}, {"measurement": "GI50", "setting": "[12]", "value": "> 100 µM (inactive)"}, {"measurement": "GI50", "setting": "[13]", "value": "> 100", "unit": "µM"}, {"measurement": "GI50", "setting": "[14]", "value": "> 100 µM (inactive)"}, {"measurement": "GI50", "setting": "[15]", "value": "> 100 µM (inactive)"}, {"measurement": "GI50", "setting": "[16]", "value": "> 100 µM (inactive)"}, {"measurement": "GI50", "setting": "[50]", "value": "> 100 µM (inactive)"}, {"measurement": "GI50", "setting": "[17]", "value": "> 100 µM (inactive)"}, {"measurement": "GI50", "setting": "[51]", "value": "> 100 µM (inactive)"}, {"measurement": "GI50", "setting": "[52]", "value": "> 100 µM (inactive)"}, {"measurement": "GI50", "setting": "[19]", "value": "98.4 µM (inactive)"}, {"measurement": "GI50", "setting": "[20]", "value": "> 100 µM (inactive)"}, {"measurement": "GI50", "setting": "[53]", "value": "> 100 µM (inactive)"}, {"measurement": "GI50", "setting": "[21]", "value": "> 100 µM (inactive)"}, {"measurement": "GI50", "setting": "[22]", "value": "> 100 µM (inactive)"}, {"measurement": "GI50", "setting": "[23]", "value": "> 100 µM (inactive)"}, {"measurement": "GI50", "setting": "[24]", "value": "> 100 µM (inactive)"}, {"measurement": "GI50", "setting": "[25]", "value": "> 100 µM (inactive)"}, {"measurement": "GI50", "setting": "[26]", "value": "> 100 µM (inactive)"}, {"measurement": "GI50", "setting": "[27]", "value": "> 100 µM (inactive)"}, {"measurement": "GI50", "setting": "[28]", "value": "2.79 µM (inactive)"}, {"measurement": "GI50", "setting": "[29]", "value": "> 100 µM (inactive)"}, {"measurement": "GI50", "setting": "[30]", "value": "> 100 µM (inactive)"}, {"measurement": "GI50", "setting": "[32]", "value": "> 100 µM (inactive)"}, {"measurement": "GI50", "setting": "[54]", "value": "> 100 µM (inactive)"}, {"measurement": "GI50", "setting": "[34]", "value": "> 100 µM (inactive)"}, {"measurement": "GI50", "setting": "[35]", "value": "> 100 µM (inactive)"}, {"measurement": "GI50", "setting": "[36]", "value": "> 100 µM (inactive)"}, {"measurement": "GI50", "setting": "[37]", "value": "> 100 µM (inactive)"}, {"measurement": "GI50", "setting": "[38]", "value": "> 100 µM (inactive)"}, {"measurement": "GI50", "setting": "[39]", "value": "> 100 µM (inactive)"}, {"measurement": "GI50", "setting": "[55]", "value": "53.8 µM (inactive)"}, {"measurement": "GI50", "setting": "[40]", "value": "> 100 µM (inactive)"}, {"measurement": "GI50", "setting": "[41]", "value": "> 100 µM (inactive)"}, {"measurement": "GI50", "setting": "[42]", "value": "> 100 µM (inactive)"}, {"measurement": "GI50", "setting": "[44]", "value": "> 100 µM (inactive)"}, {"measurement": "GI50", "setting": "[45]", "value": "> 100 µM (inactive)"}, {"measurement": "GI50", "setting": "[46]", "value": "> 100 µM (inactive)"}, {"measurement": "GI50", "setting": "[47]", "value": "> 100 µM (inactive)"}, {"measurement": "GI50", "setting": "[56]", "value": "> 100 µM (inactive)"}, {"measurement": "GI50", "setting": "[48]", "value": "14.2 µM (inactive)"}, {"measurement": "GI50", "setting": "[49]", "value": "> 100 µM (inactive)"}]}
